In EP4332093A1, “SALT CONTAINING PIPERAZINE POLYCYCLIC DERIVATIVE, CRYSTAL FORM THEREOF, PREPARATION METHOD THEREFOR, AND USE THEREOF” (Shanghai Hansoh Biomedical Co., Ltd., priority 2021, dated 2022) one finds IC50 and CAR value data, which are given here for 6 molecules.

The target in one experiment is T1, dopamine D3 receptor (Homo sapiens, UniProt P35462).
T1 construct: purchased PerkinElmer ES-173-M400UA
Nature of the experiment: Radioligand binding assay, dopamine D3 receptor ([3H]-methylspiperone). Conditions: Human Dopamine D3 Receptor membrane, [3H]-methylspiperone 0.5 nM. Here is the method: Determination of the binding ability of the compounds of the present invention to dopamine D3 receptor
The objective of this test example is to determine the affinity of the compounds for dopamine D3 receptor.
Experimental buffer: 50 mM Tris-HCl pH 7.4, 10 mm MgCl2; washing liquor: 50 mM Tris-HCl pH 7.4, stored at 4°C; 0.5% PEI solution: 0.5 g PEI dissolved in 100 mL ddH2O, 4°C storage of spare.
(§1) 5 µL of the test compounds (0.005 nM to 100 nM, 10 concentrations in total) and 100 µL of buffer were added to a 96-well assay plate. 1 µL of cell membrane and 300 µL of buffer were added to each well, and the plate was shaken at 600 rpm for 5 minutes. 100 µL of a mixed solution of buffer and [^3H]-methylspiperone (final concentration of 0.5 nM) was added to the reaction system per well, and the plate was shaken at 600 rpm for 5 minutes and incubated at 27°C for 30 min. The UNIFII,TER-96 GF/B filter plate pre-incubated with 0.5% PEI for 1 h was washed twice with the buffer (1 mL/well). The cell membrane suspension was added to the […]-96 GF/B filter plate, washed 4 times, and incubated at 55°C for 10 min. 40 µL of ULTIMA GOLD was added to each well, and liquid scintillation counting was carried out.
(§2) The CPM (Counts per minute) values were determined by TopCount. […] The 10 concentrations of the compound were from 100 nM to 0.005 nM after 3-fold dilution of the reaction system. The percent inhibition rate and ten-point concentration data were fitted to the parametric nonlinear logistic equation by using GraphPad prism to calculate the IC50 values of the compound.

The next experiment addresses 5-HT2A receptor (Homo sapiens, UniProt P28223). Nature of the experiment: Radioligand binding assay, 5-HT2A receptor ([3H]-Ketanserin). Also noted: purchased PerkinElmer. Conditions: Human 5-HT2A Receptor membrane, [3H]-Ketanserin 2 nM; read-out: 5HT-2A Binding IC50. The protocol: Determination of the binding ability of the compounds of the
present invention to 5-HT2A receptor
The objective of this test example is to determine the affinity of the compounds for 5-HT2A receptor.
Experimental buffer: 50 mM Tris-HCl pH 7.4, 4 mM CaCl2; washing liquor: 50 mM Tris-HCl pH 7.4, stored at 4°C; 0.5% PEI solution: 0.5 g PEI dissolved in 100 mL ddH2O, 4°C storage of spare.
as §1, with “plate. 1.5” for “plate. 1”, “and [^3H]-Ketanserin” for “and [^3H]-methylspiperone”, “of 2” for “of 0.5”, “The […]-96” for “The UNIFII,TER-96”
as §2

For a further experiment, the system named is rats. As to the kind of experiment: Pharmacodynamic model of active escape experiment in rats. Format: in vivo. Conditions: F344 rats, oral, Dose 1 mg/kg, one hour before the test; Vehicle 91-98%. Here is the method: To evaluate the anti-schizophrenic effect of the compounds using the pharmacodynamic model of the active escape experiment in rats.
A certain mass (such as 1.0 g) of CMC-Na was weighed into a glass bottle. A certain volume (such as 200 mL) of purified water was added. The resulting mixture was stirred to disperse evenly. 1% (v/v) Tween 80 was added according to the solution volume, and the resulting mixture was stirred overnight to obtain a homogeneous clear solution, which was stored at 2 to 8°C for later use.
A prescription amount of the compound was weighed, followed by the addition of a prescription volume of 0.5% CMC-Na+1% Tween 80 solution. […]
The actual sample amount needs to be calculated during the formulation and administration of the compound solution. […]
The current intensity was 0.6 mA and the duration was 10 seconds. […] This would be recorded as escape failures, and the single training ended; • 5.1.5 Each animal was trained 30 times a day for a total of 6 days, and returned to the cage after the training. • 5.2 Baseline test and grouping […]
The following data was collected by the software for data analysis: • Number of avoids of the animal; • Number of escape failures of the animal; • Escape latency of the animal; • All measurement data were expressed as mean ± standard error (Mean ± SEM), and analyzed by Graphpad 6 statistical software. […]

Sequence of 5-HT2A receptor (P28223 whole entry): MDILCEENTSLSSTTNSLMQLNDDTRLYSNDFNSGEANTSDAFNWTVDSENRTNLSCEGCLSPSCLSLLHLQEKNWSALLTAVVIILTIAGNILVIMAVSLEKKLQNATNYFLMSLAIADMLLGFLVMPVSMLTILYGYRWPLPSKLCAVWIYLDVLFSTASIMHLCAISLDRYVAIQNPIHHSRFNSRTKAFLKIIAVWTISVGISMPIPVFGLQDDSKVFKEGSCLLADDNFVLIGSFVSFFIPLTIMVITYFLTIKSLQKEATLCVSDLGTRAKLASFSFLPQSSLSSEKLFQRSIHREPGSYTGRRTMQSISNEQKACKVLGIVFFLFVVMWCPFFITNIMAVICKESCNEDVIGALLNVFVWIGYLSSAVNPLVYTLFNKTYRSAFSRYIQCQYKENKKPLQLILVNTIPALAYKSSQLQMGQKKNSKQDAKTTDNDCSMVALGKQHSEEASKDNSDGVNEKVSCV
T1 sequence (P35462 whole entry): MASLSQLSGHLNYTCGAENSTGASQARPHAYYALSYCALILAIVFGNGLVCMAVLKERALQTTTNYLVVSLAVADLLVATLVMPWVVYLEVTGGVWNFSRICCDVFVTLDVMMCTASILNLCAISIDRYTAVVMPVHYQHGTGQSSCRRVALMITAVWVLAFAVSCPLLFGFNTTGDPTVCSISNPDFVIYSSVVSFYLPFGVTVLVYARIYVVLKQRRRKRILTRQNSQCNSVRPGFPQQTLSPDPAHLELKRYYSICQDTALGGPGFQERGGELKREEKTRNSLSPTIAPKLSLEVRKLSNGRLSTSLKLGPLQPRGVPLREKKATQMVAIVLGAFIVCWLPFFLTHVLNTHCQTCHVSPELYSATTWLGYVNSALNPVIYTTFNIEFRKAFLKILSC

Take `O=C(N[C@H]1C[C@H](CCN2CCN(c3cccc(Cl)c3Cl)CC2)C1)c1cccc2ncccc12` [Example 19A, N-(Trans-3-(2-(4-(2,3-dichlorophenyl)piperazin-1-yl)ethyl)cyclobutyl)quinoline-5-c arboxamide]: the IC50 (commonly the concentration that inhibits the measured activity by half) on dopamine D3 receptor was 0.4 nM; at 5-HT2A receptor it was 1.89 nM.

With `O=C(N[C@H]1C[C@@H](CCN2CCN(c3cccc(Cl)c3Cl)CC2)C1)c1ncco1` [Example 12B, N-(Cis-3-(2-(4-(2,3-dichlorophenyl)piperazin-1-yl)ethyl)cyclobutyl)oxazole-2-carbo xamide], the results for the 50% inhibitory concentration (IC50) on dopamine D3 receptor and on 5-HT2A receptor were 2.54 nM and 8.73 nM, respectively.

Turning to `O=C(NC1CC(CCN2CCN(c3cccc(Cl)c3Cl)CC2)C1)c1ncco1` (stereo not drawn) [Example 12, N-(3-(2-(4-(2,3-Dichlorophenyl)piperazin-1-yl)ethyl)cyclobutyl)oxazole-2-carboxamide], in the experiment on rats, the CAR value worked out at 30%.

`O=C(N[C@H]1C[C@H](CCN2CCN(c3cccc(Cl)c3Cl)CC2)C1)c1nccs1` [Example 7A, N-(Trans-3-(2-(4-(2,3-dichlorophenyl)piperazin-1-yl)ethyl)cyclobutyl)thiazole-2-car boxamide]: the values for the half-maximal inhibitory concentration (IC50) on dopamine D3 receptor and at 5-HT2A receptor were 0.44 nM and 0.79 nM, respectively.

Consider `O=C(N[C@H]1C[C@H](CCN2CCN(c3cccc(Cl)c3Cl)CC2)C1)C1(O)CC1` [Example 6A, N-(Trans-3-(2-(4-(2,3-dichlorophenyl)piperazin-1-yl)ethyl)cyclobutyl)-1-hydroxycy clopropane-1-carboxamide], for which the IC50 at dopamine D3 receptor stood at 0.75 nM; at 5-HT2A receptor it was 5.77 nM.

Turning to `O=C(N[C@H]1C[C@H](CCN2CCN(c3cccc(Cl)c3Cl)CC2)C1)c1ncco1` [Example 12A, N-(Trans-3-(2-(4-(2,3-dichlorophenyl)piperazin-1-yl)ethyl)cyclobutyl)oxazole-2-car boxamide], the half-inhibitory concentration (IC50) came out at 0.37 nM on dopamine D3 receptor and 4.19 nM at 5-HT2A receptor. Besides, the CAR value in the experiment with rats came out at 18.5%.
